Data as given in patent publication US7666608B2, “Methods for determining drug responsiveness” (The Trustees of the University of Pennsylvania, priority 2002, dated 2010).

Key:
[1] = system: human SAA1 promoter; test: SAA1 promoter luciferase reporter construct in HepG2 cells; format: cell-based; settings: HepG2, pGL2-SAA1pt
Excerpt: The pGL2-SAA1pt construct was generated as follows. The proximal 3.1 kb of genomic sequence upstream of the human SAA1 transcription start site plus the full 37 bases of 5′UTR was amplified by polymerase chain reaction (PCR) from human genomic DNA (Roche Biomolecular) using forward and reverse primers, HSAA1PF (5′-GAATTCACGCGTTT-[…]-3′) (SEQ ID NO:10) and HSAAPR (5′-[…]-GCTGAGCTGCGGG-3′) (SEQ ID NO:11), that incorporate Mlu1 and Nco1 restriction sites, respectively. The product was digested with Mlu1 and Nco1 and directionally cloned into a pGL2 vector which had been modified to include an Nco1 site at the start of the luciferase coding sequence and contains the human SAA2 3′UTR (Longley et al. (1999) J. Immunol. 163:4537-45).
Constructs pGL2-SAA1[0.7] and pGL2-SAA1[0.25] containing 704 and 233 bases of promoter sequence respectively, were generated from pGL2-SAA1pt by PCR using the forward primers 5′-[…]-CAGCCTTGACC-3′ (SEQ ID NO:12) and 5′-GAATTCACGCGTGGTCT-CCTGCCTG-3′ (SEQ ID NO:13) respectively, and the reverse primer HSAAPR.
Human HepG2 hepatoma cells (ATCC) were cultured in DMEM containing 10% FCS, gentamycin, sodium pyruvate and non-essential amino acids (Gibco BRL). Cells were seeded into 24 well plates 24 hours prior to transfection using FuGENE (Roche Biomolecular) as described in Jensen et al. (2000) J. Immunol. 164:5277-86. Cells transfected with SAA promoter luciferase reporter constructs and renilla control plasmid, were incubated for 16 to 20 hours before replacement of culture medium with fresh medium alone or fresh medium containing 10 ng/ml cytokines and/or dexamethasone and/or RU486 (Mifepristone). IL-1 was purchased from Peprotech. IL-6 was obtained from AstraZeneca. Dexamethasone and RU486 were obtained from Sigma.
(§1) Cells were harvested at various times post-treatment, washed in PBS and resuspended in Passive Lysis Buffer (Promega, Madison, Wis.). […] Each treatment was carried out in triplicate and the mean ratio of luciferase to renilla activity and standard deviations were calculated. […]

[2] = system: human SAA2 promoter; test: SAA2 promoter luciferase reporter construct in HepG2 cells; format: cell-based; settings: HepG2, pGL2-SAA2pt, cytokines 10 ng/ml
Excerpt: The pGL2-SAA2pt construct, which contains 1.2 kb of the human SAA2 promoter upstream of a luciferase reporter was generated as follows. A 1196 bp of the promoter region and 22 bp of the first exon of the human acute phase SAA2 gene was amplified by PCR with the introduction of MluI and XhoI restriction sites at the 5′ and 3′ ends respectively (5′ oligonucleotide: 5′ […]-TACTTCCT-′3′ (SEQ ID NO: 8); 3′ oligonucleotide: 5′-[…]-[…]-3′ (SEQ ID NO:9). The PCR product was subsequently cloned into the multiple-cloning site of the pGL2-Basic vector (Promega, Madison, Wis., USA) which is located upstream of a luciferase reporter gene.
Constructs pGL2-SAA2[0.7] and pGL2-SAA2[0.25] containing 700 and 239 bases of promoter sequence respectively, were generated from pGL2-SAA2pt by PCR using the forward primers 5′-[…]-3′ (SEQ ID NO:14) and 5′-[…]-3′ (SEQ ID NO:15) respectively, and the reverse primer HSAAPR.
Human HepG2 hepatoma cells (ATCC) were cultured in DMEM containing 10% FCS, gentamycin, sodium pyruvate and non-essential amino acids (Gibco BRL). […]
as §1

## CC#C[C@]1(O)CC[C@H]2[C@@H]3CCC4=CC(=O)CCC4=C3[C@@H](c3ccc(N(C)C)cc3)C[C@@]21C [RU486, Mifepristone]
[1]; 10 nM RU486 alone with IL-1 plus IL-6, 4 h
  effect on cytokine driven SAA1 promoter transcriptional activity: no measurable effect
[1]; 10 nM RU486 with 100 nM dexamethasone and IL-1 plus IL-6, 4 h
  block of dexamethasone enhancement of cytokine induction of the SAA1 promoter: completely blocked

## C[C@@H]1C[C@H]2[C@@H]3CCC4=CC(=O)C=C[C@]4(C)[C@@]3(F)[C@@H](O)C[C@]2(C)[C@@]1(O)C(=O)CO [dexamethasone]
[1]; dexamethasone alone (50 nM), 3, 6, 9, 24 h
  effect on the SAA1 promoter: no effect

## IL-6: cytokine, obtained from AstraZeneca
[2]; 3, 6, 9, 24 h
  kinetic profile of cytokine driven SAA2 promoter readout: highest at 3 hours and decreased through 24 hours
[2]; 3-24 h
  induction of the SAA2 promoter: moderately induced
